Test results taken from patent US8980796B2, “Crystal modification of Mesotrione” (Agan Chemical Manufacturers Ltd., priority 2009, dated 2015).
Entries after “also recorded” stand apart in the source; their conditions may differ. Like-named read-outs stand apart in the source and are kept apart here.

Assays:
[1] = per WO 2007/083242, WO 2006/021743, cited from earlier work
corn varieties = assay: Selectivity pot trials, overall phytotoxicity on crops; type: in vivo; conditions: corn varieties tested; 3500 ml/ha (equivalent to 350g a.i./ha)
Experimental: The selectivity of two Mesotrione 100SC (containing 100 g/l mesotrione) formulations was compared for two crystal modifications (1 and 3).
The test was performed on three corn varieties. The corn varieties were sown in plastic pots (400 cc) filled with heavy soil. Each treatment was sprayed in 5 replicates. The trial was performed in a glasshouse with controlled temperature (20-30°).
Post emergence spraying was performed two weeks after sowing. The trials were sprayed with a mechanical sprayer, with a spray volume of 200 L/ha (equivalent to 3500 ml/ha mesotrione 100SC). The plants were irrigated 24 H (hours) after spraying. Selectivity evaluations were conducted during the trial according to the following scale: • 0=Crop completely dead (necrotic). • 100=Plants without any phytotoxic damage.

For `CS(=O)(=O)c1ccc(C(=O)C2C(=O)CCCC2=O)c([N+](=O)[O-])c1` [Mesotrione form 1, 2-[4-(methylsulfonyl)-2-nitrobenzoyl]-1,3-cyclohexanedione], the “thermodynamic stability of the polymorphic form” value ([1]; listed as Form 1) is given as “thermodynamically stable”.
For `CS(=O)(=O)c1ccc(C(=O)C2C(=O)CCCC2=O)c([N+](=O)[O-])c1` [Mesotrione form 2, 2-[4-(methylsulfonyl)-2-nitrobenzoyl]-1,3-cyclohexanedione], the “thermodynamic stability of the polymorphic form” value ([1]; listed as Form 2) is given as “thermodynamically unstable”.
In the case of `CS(=O)(=O)c1ccc(C(=O)C2C(=O)CCCC2=O)c([N+](=O)[O-])c1` [Mesotrione form 3, 2-[4-(methylsulfonyl)-2-nitrobenzoyl]-1,3-cyclohexanedione], the “phytotoxicity on crops as compared to mesotrione form 1” value (corn varieties) is reported as “decreased phytotoxicity; also recorded: low phytotoxicity”.
